Values joined by “and” are separate entries in the source; they are usually repeats but may differ in a detail not shown here. Equal entries are not always repeated. Where a SMILES comes first, the peptide text is derived from it. [ ]: non-standard residue; d: D form. Hyp = O=C(O)[C@@H]1C[C@@H](O)CN1
Columns and labels:
[1] = system: GM-CSF; test: Example 9 Luminex, LPS hPBMCs: GM-CSF; assay type: cell-based, human
Experimental: (§1) Treatment Human PBMCs were pretreated with YY-101, YDE-011 and YDE-043 or reference compound; Xiidra® at various concentration (ranging from 1 nM to 100 uM) for 2 h before stimulation. An equal volume of 0.5% DMSO was used as a vehicle control. Then, the cells were treated with LPS at 5 ug/ml. The supernatants from treated cells were harvested at 24 h and placed in a 96 well for Luminex cytokine & chemokine profiling using a Luminex 200 multiplex assay (Luminex; R&D system, USA).
(§2) The main study arm with triplicate wells per group in a 24-well plate: • 1. Blank • 2. PBMC: 0.5% DMSO • 3. PBMC+LPS (5 ug/ml) • 4. PBMC+YY-101 100 uM • 5. PBMC+YY-101 10 uM • 6. PBMC+YY-101 1 uM • 7. PBMC+YY-101 0.1 uM • 8. PBMC+YY-101 0.01 uM • 9. PBMC+LPS (5 ug/ml)+Xiidra®100 uM • 10. PBMC+LPS (5 ug/ml)+Xiidra® 10 uM • 11. PBMC+LPS (5 ug/ml)+Xiidra® 1 uM • 12. PBMC+LPS (5 ug/ml)+Xiidra®0.1 uM • 13. PBMC+LPS (5 ug/ml)+Xiidra®0.01 uM • 14. PBMC+LPS (5 ug/ml)+Xiidra®0.001 uM • 15. PBMC+LPS (5 ug/ml)+YY-101 100 uM • 16. PBMC+LPS (5 ug/ml)+YY-101 10 uM • 17. PBMC+LPS (5 ug/ml)+YY-101 1 uM • 18. PBMC+LPS (5 ug/ml)+YY-101 0.1 uM • 19. PBMC+LPS (5 ug/ml)+YY-101 0.01 uM • 20. PBMC+LPS (5 ug/ml)+YY-101 0.001 uM • 21. PBMC+LPS (5 ug/ml)+YDE-011 100 uM • 22. PBMC+LPS (5 ug/ml)+YDE-011 10 uM • 23. PBMC+LPS (5 ug/ml)+YDE-011 1 uM • 24. PBMC+LPS (5 ug/ml)+YDE-011 0.1 uM • 25. PBMC+LPS (5 ug/ml)+YDE-011 0.01 uM • 26. PBMC+LPS (5 ug/ml)+YDE-011 0.001 uM • 27. PBMC+LPS (5 ug/ml)+YDE-043 100 uM • 28. PBMC+LPS (5 ug/ml)+YDE-043 10 uM • 29. PBMC+LPS (5 ug/ml)+YDE-043 1 uM • 30. PBMC+LPS (5 ug/ml)+YDE-043 0.1 uM • 31. PBMC+LPS (5 ug/ml)+YDE-043 0.01 uM • 32. PBMC+LPS (5 ug/ml)+YDE-043 0.001 uM
(§3) Multiplex assay was used to measure 30 cytokines and chemokines. The 1:2, 1:10 and 1:200 diluted cell supernatant and serial dilution of the standard were dispensed into a 96 well plate at 50 ul/well. Then, the pre-mixed cocktail of antibody-coated magnetic beads was dispensed at 50 ul/well and incubated at room temperature for 2 h in a horizontal orbital microplate shaker at 800±500 rpm. The beads were washed using a magnetic device to prevent loss. The biotin-antibody was dispensed in 50 ul of each well and incubated at room temperature for 1 h in a shaker at 800±500 rpm. After washing, streptavidin-PE was added at 50 ul/well and incubated at room temperature for 30 min in a shaker under the same conditions. Finally, after washing, wash buffer (100 ul/well) was added to the plate and incubated in a shaker for 2 min. The Luminex™ 200 setting were set according to the manufacturer's protocol. The data was calculated with a standard five-parameter logistic nonlinear regression analysis of the data (xPonent software 4.2, USA). The levels of cytokine/chemokine are normalized to the live cell counts (1×10^5 cells/mL) and presented as concentrations per mL (pg/mL or ng/mL).

[2] = system: CCL20/MIP-3 alpha; test: Example 9 Luminex, LPS hPBMCs: CCL20/MIP-3 alpha; assay type: cell-based, human
Experimental: as §1, §2, §3

[3] = PBMC + LPS(5 ug/ml) + test article 0.001 uM, Mean
[4] = PBMC + LPS(5 ug/ml) + test article 0.001 uM, single replicates
[5] = PBMC + LPS(5 ug/ml) + test article 0.01 uM, Mean
[6] = PBMC + LPS(5 ug/ml) + test article 0.01 uM, single replicates
[7] = PBMC + LPS(5 ug/ml) + test article 0.1 uM, Mean
[8] = PBMC + LPS(5 ug/ml) + test article 0.1 uM, single replicates
[9] = PBMC + LPS(5 ug/ml) + test article 1 uM, Mean
[10] = PBMC + LPS(5 ug/ml) + test article 1 uM, single replicates
[11] = PBMC + LPS(5 ug/ml) + test article 10 uM, Mean
[12] = PBMC + LPS(5 ug/ml) + test article 10 uM, single replicates
[13] = PBMC + LPS(5 ug/ml) + test article 100 uM, Mean
[14] = PBMC + LPS(5 ug/ml) + test article 100 uM, single replicates
[15] = PBMC + LPS(5 ug/ml) + test article 0.001 uM, individual replicate
[16] = PBMC + LPS(5 ug/ml) + test article 0.01 uM, individual replicate
[17] = PBMC + LPS(5 ug/ml) + test article 0.1 uM, individual replicate
[18] = PBMC + LPS(5 ug/ml) + test article 1 uM, individual replicate
[19] = PBMC + LPS(5 ug/ml) + test article 10 uM, individual replicate
[20] = PBMC + LPS(5 ug/ml) + test article 100 uM, individual replicate

CC(C)C[C@H](NC(=O)[C@H](CCC(N)=O)NC(=O)CNC(=O)[C@@H]1C[C@@H](O)CN1)C(=O)NCC(=O)O [YDE-043] (H-[Hyp]GQLG-OH; N-terminus and C-terminus assumed)
GM-CSF Concentration [1, 3]: 96.8 pg/mL | GM-CSF conc/live cell [1, 3]: 19.6 pg/10^5 | GM-CSF Concentration [1, 4]: 85.3 pg/mL and 103.8 pg/mL and 101.3 pg/mL | GM-CSF conc/live cell [1, 4]: 19.4 pg/10^5 and 17.3 pg/10^5 and 22.0 pg/10^5 | GM-CSF Concentration [1, 5]: 92.9 pg/mL | GM-CSF conc/live cell [1, 5]: 17.9 pg/10^5 | GM-CSF Concentration [1, 6]: 94.6 pg/mL and 86.1 pg/mL and 97.9 pg/mL | GM-CSF conc/live cell [1, 6]: 21.0 pg/10^5 and 13.1 pg/10^5 and 19.6 pg/10^5 | GM-CSF Concentration [1, 7]: 92.5 pg/mL | GM-CSF conc/live cell [1, 7]: 17.1 pg/10^5 | GM-CSF Concentration [1, 8]: 87.8 pg/mL and 91.2 pg/mL and 98.4 pg/mL | GM-CSF conc/live cell [1, 8]: 17.6 pg/10^5 (2×) and 16.3 pg/10^5 | GM-CSF Concentration [1, 9]: 91.6 pg/mL | GM-CSF conc/live cell [1, 9]: 17.4 pg/10^5 | GM-CSF Concentration [1, 10]: 89.5 pg/mL and 92.1 pg/mL and 93.3 pg/mL | GM-CSF conc/live cell [1, 10]: 15.4 pg/10^5 and 19.2 pg/10^5 and 17.6 pg/10^5 | GM-CSF Concentration [1, 11]: 101.0 pg/mL | GM-CSF conc/live cell [1, 11]: 18.7 pg/10^5 | GM-CSF Concentration [1, 12]: 102.1 pg/mL and 96.3 pg/mL and 104.6 pg/mL | GM-CSF conc/live cell [1, 12]: 19.6 pg/10^5 and 17.8 pg/10^5 and 18.7 pg/10^5 | GM-CSF Concentration [1, 13]: 137.2 pg/mL | GM-CSF conc/live cell [1, 13]: 21.8 pg/10^5 | GM-CSF Concentration [1, 14]: 140.1 pg/mL and 134.4 pg/mL | GM-CSF conc/live cell [1, 14]: 22.6 pg/10^5 and 21.0 pg/10^5 | Concentration, CCL20/MIP-3 alpha [2, 3]: 222.1 pg/mL | MFI, CCL20/MIP-3 alpha [2, 3]: 234.3 | conc/live cell, CCL20/MIP-3 alpha [2, 3]: 45.5 pg/10^5 | Concentration, CCL20/MIP-3 alpha [2, 15]: 237.5 pg/mL and 214.3 pg/mL and 214.7 pg/mL | MFI, CCL20/MIP-3 alpha [2, 15]: 252.5 and 225.0 and 225.5 | conc/live cell, CCL20/MIP-3 alpha [2, 15]: 54.0 pg/10^5 and 35.7 pg/10^5 and 46.7 pg/10^5 | Concentration, CCL20/MIP-3 alpha [2, 5]: 257.4 pg/mL | MFI, CCL20/MIP-3 alpha [2, 5]: 276.3 | conc/live cell, CCL20/MIP-3 alpha [2, 5]: 49.7 pg/10^5 | Concentration, CCL20/MIP-3 alpha [2, 16]: 272.1 pg/mL and 235.8 pg/mL and 264.2 pg/mL | MFI, CCL20/MIP-3 alpha [2, 16]: 294.0 and 250.5 and 284.5 | conc/live cell, CCL20/MIP-3 alpha [2, 16]: 60.5 pg/10^5 and 35.7 pg/10^5 and 52.8 pg/10^5 | Concentration, CCL20/MIP-3 alpha [2, 7]: 269.5 pg/mL | MFI, CCL20/MIP-3 alpha [2, 7]: 290.8 | conc/live cell, CCL20/MIP-3 alpha [2, 7]: 50.0 pg/10^5 | Concentration, CCL20/MIP-3 alpha [2, 17]: 269.6 pg/mL and 266.7 pg/mL and 272.1 pg/mL | MFI, CCL20/MIP-3 alpha [2, 17]: 291.0 and 287.5 and 294.0 | conc/live cell, CCL20/MIP-3 alpha [2, 17]: 53.9 pg/10^5 and 47.6 pg/10^5 and 48.6 pg/10^5 | Concentration, CCL20/MIP-3 alpha [2, 9]: 257.7 pg/mL | MFI, CCL20/MIP-3 alpha [2, 9]: 276.7 | conc/live cell, CCL20/MIP-3 alpha [2, 9]: 48.8 pg/10^5 | Concentration, CCL20/MIP-3 alpha [2, 18]: 267.1 pg/mL and 251.7 pg/mL and 254.2 pg/mL | MFI, CCL20/MIP-3 alpha [2, 18]: 288.0 and 269.5 and 272.5 | conc/live cell, CCL20/MIP-3 alpha [2, 18]: 46.1 pg/10^5 and 52.4 pg/10^5 and 48.0 pg/10^5 | Concentration, CCL20/MIP-3 alpha [2, 11]: 267.8 pg/mL | MFI, CCL20/MIP-3 alpha [2, 11]: 288.8 | conc/live cell, CCL20/MIP-3 alpha [2, 11]: 49.6 pg/10^5 | Concentration, CCL20/MIP-3 alpha [2, 19]: 260.1 pg/mL and 260.9 pg/mL and 282.4 pg/mL | MFI, CCL20/MIP-3 alpha [2, 19]: 279.5 and 280.5 and 306.5 | conc/live cell, CCL20/MIP-3 alpha [2, 19]: 50.0 pg/10^5 and 48.3 pg/10^5 and 50.4 pg/10^5 | Concentration, CCL20/MIP-3 alpha [2, 13]: 358.3 pg/mL | MFI, CCL20/MIP-3 alpha [2, 13]: 399.5 | conc/live cell, CCL20/MIP-3 alpha [2, 13]: 56.9 pg/10^5 | Concentration, CCL20/MIP-3 alpha [2, 20]: 381.7 pg/mL and 334.8 pg/mL | MFI, CCL20/MIP-3 alpha [2, 20]: 428.5 and 370.5 | conc/live cell, CCL20/MIP-3 alpha [2, 20]: 61.6 pg/10^5 and 52.3 pg/10^5
